The results in this text go back to article PMC4554294 (Biochemistry and Biophysics Reports, 2015).

Common to all, as to test: saturation transfer difference
Holding throughout (type): binding

Assay [1] addresses T1, sucrose phosphorylase (LmSPase) (Leuconostoc mesenteroides, UniProt Q59495, F52A/E237A).
T1 sequence (Q59495 1-490 F52A/E237A): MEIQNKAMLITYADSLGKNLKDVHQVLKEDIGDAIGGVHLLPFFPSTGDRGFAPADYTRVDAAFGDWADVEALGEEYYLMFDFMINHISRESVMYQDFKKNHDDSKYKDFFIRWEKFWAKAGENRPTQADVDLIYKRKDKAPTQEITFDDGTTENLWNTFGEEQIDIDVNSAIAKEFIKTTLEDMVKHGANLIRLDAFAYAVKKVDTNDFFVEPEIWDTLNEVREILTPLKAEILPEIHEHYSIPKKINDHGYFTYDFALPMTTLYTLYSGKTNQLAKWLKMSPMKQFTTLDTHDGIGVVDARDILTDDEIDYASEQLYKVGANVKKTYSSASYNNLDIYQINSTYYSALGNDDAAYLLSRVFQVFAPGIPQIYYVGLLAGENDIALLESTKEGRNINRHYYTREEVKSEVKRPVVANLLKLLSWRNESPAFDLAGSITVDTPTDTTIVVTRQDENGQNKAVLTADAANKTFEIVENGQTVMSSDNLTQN

The target in assay [2] is T2, sucrose phosphorylase (LmSPase) (Leuconostoc mesenteroides, UniProt Q59495, F52A/D295A).
T2 sequence (Q59495 1-490 F52A/D295A): T1 sequence (Q59495 1-490 F52A/E237A)

Assay [3] concerns the target T3, sucrose phosphorylase (LmSPase) (Leuconostoc mesenteroides, UniProt Q59495, F52A).
T3 sequence (Q59495 1-490 F52A): T1 sequence (Q59495 1-490 F52A/E237A)

Assay [4] has as its target T4, sucrose phosphorylase (LmSPase) (Leuconostoc mesenteroides, UniProt Q59495, F52A/D196A).
T4 sequence (Q59495 1-490 F52A/D196A): T1 sequence (Q59495 1-490 F52A/E237A)

Assay [5] deals with T5, sucrose phosphorylase (LmSPase) (Leuconostoc mesenteroides, UniProt Q59495).
T5 sequence (Q59495 1-490): T1 sequence (Q59495 1-490 F52A/E237A)

Take `O=P(O)(O)O[C@H]1O[C@H](CO)[C@@H](O)[C@H](O)[C@H]1O` [αGlc 1-P, α-D-glucose 1-phosphate]: the “saturation transfer difference (STD) NMR” value in assay [1] is listed as “suggesting that binding of αGlc 1-P did take place in each double mutant”; in assay [3] it was “STD effects in αGlc 1-P were considerably weaker in F52A mutant than in wild-type enzyme”; in assay [4], “Incubation of either double mutant with αGlc 1-P gave rise to distinct STD effects in the ligand”. The “saturation transfer difference (STD) NMR; steady-state kinetics” value in assay [2] is reported as “STD signal intensities were higher on binding of αGlc 1-P to F52A_D295A mutant as compared to wild-type”. Besides, the “saturation transfer difference (STD) NMR, 7 μM enzyme, 5.0 mM ligand” value in assay [5] is “Binding of αGlc 1-P to LmSPase resulted in a characteristic pattern of STD effects”.
